The nature of data set [1]: Aqueous solubility of felodipine. The class given is physicochemical.
Data set [2] can be described thus: pH of excipient and felodipine suspensions before and after heat treatment (Example 11). The class given is physicochemical. As for the experimental part:
The heat treatment step involved heating the mixture at reflux for 15 minutes and allowing the mixture to stand over night.

Values after ≈ are worked out from the molar mass of the structure shown.

Usually solubility stands for the concentration that dissolves in the medium under given conditions. A high value points to a readily soluble substance. As for `CCOC(=O)C1=C(C)NC(C)=C(C(=O)OC)C1c1cccc(Cl)c1Cl` (racemic) [felodipine], in data set [1] (all pH levels), the aqueous solubility entry was “about 0.0001%”. The molecule also displayed a solubility in data set [1] (aqueous media) of 0.5 µg/mL (≈ 1.3 µM).
As to `O=P([O-])([O-])O.[Ca+2]` [Dibasic calcium phosphate (DCP), Dibasic calcium phosphate], the pH was 4.07 in data set [2] (Heat Treatment (reflux 15 minutes, stand over night)) and 7.39 in data set [2] (Initial). Also, the “Δ pH” value in data set [2] (Heat Treatment versus Initial) is −3.32.
